The values below come from a melting point compilation (Tetko et al.).

Take `CC(C)(C)OC(=O)NC1CCCCCC1=O` (centres undefined): the melting point – broadly, the temperature of the solid-liquid transition – fell in the range of 67 to 69 °C.

`CCc1nc(N)[nH]c(=S)n1` showed a melting point of 239 to 241 °C.

Turning to `CCc1c[nH]c(S)n1`, the melting point fell in the range of 163 to 165 °C.

In turn, `NNC(=O)Cn1ccc2ccccc21` yielded a melting point of 176 to 178 °C.

With `C=CCN(CC(=O)O)S(=O)(=O)c1ccc(Cl)cc1`, the melting point lay within 136 to 138 °C.

In turn, `CCOC(=O)c1ccc(-n2c(C)nc3ccccc3c2=O)cc1` returned a melting point of 173 to 175 °C.

With `CC(C)(C)OC(=O)N(CC(=O)O)c1ccccc1`, the melting point lay in the range of 84 to 86 °C.

Compound `O=C(O)c1cn(Cc2ccccn2)nn1` displayed a melting point of 179 to 181 °C.

As to `Nc1ccc(C(=O)O)cc1CCCC(=O)O`, the melting point lay within 203 to 205 °C.

In turn, `CNC(=O)C1CNCCO1` (centres undefined) showed a melting point of 93 to 95 °C.

Regarding `O=C(O)c1cc(-c2ccco2)nc2onc(C3CC3)c12`, the melting point was in the range of 215 to 217 °C.

The compound `COc1cc(NC(C)=O)ccc1N` had a melting point of 128 to 130 °C.

In turn, `Cn1cc(C(=O)O)c(-c2cccs2)n1` displayed a melting point of 179 to 181 °C.

As to `CN1CCN(c2nccc(Cl)n2)CC1`, the melting point is 94 to 96 °C.

In the case of `O=C(O)CNC(=O)c1ccccc1I`, the melting point lay within 174 to 176 °C.

The compound `CC(C)Oc1ccc([N+](=O)[O-])c(C(=O)O)c1` showed a melting point of 135 to 137 °C.

Consider `O=C(O)c1sc(-c2ccccc2)cc1OCc1ccccc1`, for which the melting point lay within 178 to 180 °C.

Consider `N#Cc1cccc(-c2ncn[nH]2)c1`, for which the melting point was in the range of 144 to 146 °C.

For the compound `CCN1C(=C2C=NN(C)C2=N)Nc2ccccc21`, the melting point lay in the range of 111 to 113 °C.

Take `COC(C)c1ncc(C(=O)O)s1` (centres undefined): the melting point lay in the range of 131 to 133 °C.

In the case of `O=C(O)Cc1ccc(-n2cccc2)cc1`, the melting point is 171 to 173 °C.

With `CNC(=O)c1cccc(NC(=O)C(C)Cl)c1` (centres undefined), the melting point was in the range of 149 to 151 °C.

For the compound `O=C(O)COc1ccc(F)cc1Br`, the melting point is 142 to 144 °C.

`CC(C)Oc1ccc(/C=C/C(=O)O)cc1` came in with a melting point of 156 to 158 °C.

With `Clc1cc2nc(-c3ccccc3)nn2cn1`, the melting point lay in the range of 225 to 227 °C.

For the compound `Nc1nc2c(ccc3ccccc32)s1`, the melting point fell in the range of 134 to 136 °C.

`CCOc1c(Cl)cc(C(=O)O)cc1OC`: the melting point lay in the range of 116 to 118 °C.

Regarding `COc1ccc(Cn2cc(C(=O)O)cn2)cc1`, the melting point lay in the range of 132 to 134 °C.

The compound `Nc1nccc(-c2ccc([N+](=O)[O-])cc2)n1` returned a melting point of 217 to 219 °C.

In turn, `COc1ccc(Br)c(-c2nnc(N)o2)c1` yielded a melting point of 189 to 191 °C.

Compound `CN1CCC(C(=O)O)c2ccccc21` (centres undefined) yielded a melting point of 99 to 101 °C.

In turn, `Cn1c(=O)[nH]c(=O)c2cc(S(=O)(=O)Cl)cnc21` came in with a melting point of 214 to 216 °C.

Consider `NS(=O)(=O)c1scnc1C(=O)O`, for which the melting point lay in the range of 205 to 207 °C.

For `NC(=O)NCc1ccc([N+](=O)[O-])cc1`, the melting point was 199 to 201 °C.

Turning to `OCc1cnn(-c2ccccc2)n1`, the melting point lay in the range of 70 to 72 °C.

Consider `Cc1ccc(-c2nn(Cc3ccccc3)cc2C(=O)O)cc1`, for which the melting point is 157 to 159 °C.

`COCc1cc(C(=O)O)no1` gave a melting point of 85 to 87 °C.

In turn, `CNc1ccc(OCCOC)cc1` displayed a melting point of 59 to 61 °C.

`O=C(O)c1cnn(-c2ccccc2)n1` yielded a melting point of 183 to 185 °C.

Turning to `CC(Cl)C(=O)Nc1ccc(F)c(F)c1F` (centres undefined), the melting point lay within 136 to 139 °C.

As to `O=C(CCl)NC(=O)NC1CCCCC1`, the melting point lay within 102 to 105 °C.

`O=S(=O)(Cl)Cc1ccc(Cl)nc1` registered a melting point of 59 to 61 °C.

`O=c1[nH]cc(Br)c2sccc12` registered a melting point of 229 to 231 °C.

Compound `Cc1cc(-c2nc3ccccc3n2C)c(=O)[nH]n1` displayed a melting point of 334 to 336 °C.

Consider `O=C(O)Cc1ccc(OCCOc2ccccc2)cc1`, for which the melting point lay within 169 to 171 °C.

With `Nc1n[nH]c(Cc2cccc(F)c2)n1`, the melting point is 179 to 181 °C.

In the case of `Cc1cc(S(N)(=O)=O)c(C)o1`, the melting point lay in the range of 86 to 88 °C.

On to `CC1(C)NC(=O)N(Cc2ccc(Cl)nc2)C1=O`, for which the melting point is 127 to 129 °C.

In turn, `O=C(O)c1ccc(F)cc1OC(F)F` came in with a melting point of 115 to 117 °C.

In turn, `CCOC(=O)c1nc2ccc(Br)cc2c(=O)[nH]1` returned a melting point of 261 to 263 °C.

Turning to `Cc1ccc(CNC(=O)c2cccc(C#N)c2)cc1`, the melting point fell in the range of 134 to 136 °C.

The compound `CCOC(=O)c1sc2ncnc(Cl)c2c1C` displayed a melting point of 113 to 115 °C.

`CC(=O)Oc1cc(C(=O)O)cc(OC(C)=O)c1OC(C)=O`: the melting point is 163 to 165 °C.

`Cc1cc([N+](=O)[O-])cc(S(=O)(=O)Cl)c1F` gave a melting point of 73 to 75 °C.

`CCOc1cc(N2CCC(O)CC2)ccc1[N+](=O)[O-]` came in with a melting point of 109 to 111 °C.

Regarding `COc1ccc(S(=O)(=O)NCCC(=O)O)cc1`, the melting point fell in the range of 125 to 127 °C.

Compound `O=Cc1c[nH]nc1-c1ccccc1F` registered a melting point of 114 to 116 °C.

For the compound `CC(=O)c1cc(CCC(=O)O)oc1C`, the melting point is 90 to 95 °C.

`O=C(O)c1ccc2c(=O)[nH]c(CCl)nc2c1` displayed a melting point of 344 to 346 °C.

Take `CCCCc1ccc(NC2=NCCCS2)cc1`: the melting point was 70 to 72 °C.

In turn, `Oc1ccccc1SC(F)(F)F` showed a melting point of 32 to 34 °C.

`CC(C#N)CSc1ccccc1NC(=O)CCl` (centres undefined): the melting point is 94 to 96 °C.

Turning to `N#Cc1c([N+](=O)[O-])cccc1S(=O)(=O)Cl`, the melting point lay in the range of 89 to 91 °C.

`Nc1ccc(CNC(=O)c2ccc(Br)cc2)cc1` yielded a melting point of 173 to 175 °C.

`NNC(=O)NC1CC1`: the melting point was 64 to 66 °C.

In turn, `N#Cc1ccc(C=O)c(F)c1` gave a melting point of 79 to 81 °C.

`CC(C)Cn1cc(C(F)F)c(C(=O)O)n1` showed a melting point of 94 to 96 °C.

Compound `c1cncc(CNC2=NCCS2)c1` yielded a melting point of 90 to 92 °C.

As to `O=c1[nH]cnc2ccc(I)cc12`, the melting point lay within 272 to 274 °C.

`CC(O)C1CCCNC1` (centres undefined) displayed a melting point of 52 to 54 °C.

Consider `CNS(=O)(=O)Cc1ccccc1CN`, for which the melting point is 130 to 132 °C.

On to `Nc1cccc(S(=O)(=O)Nc2ccccc2C(=O)O)c1`, for which the melting point was in the range of 198 to 200 °C.

Take `O=Cc1ccc(Sc2ncccn2)c([N+](=O)[O-])c1`: the melting point fell in the range of 100 to 102 °C.

The compound `O=C(O)c1cccc(NS(=O)(=O)c2ccc3ccccc3c2)c1` had a melting point of 205 to 207 °C.

The compound `ClCc1nc(-c2cccs2)n[nH]1` returned a melting point of 159 to 161 °C.

In turn, `CC1(c2c(F)cccc2F)CC1C(=O)O` (centres undefined) had a melting point of 113 to 115 °C.

In turn, `Cn1c(=O)c2[nH]c(S)nc2n(C)c1=O` had a melting point of 328 to 330 °C.

Consider `NC(Cn1cnc2ccccc21)c1ccc(F)cc1` (centres undefined), for which the melting point lay in the range of 86 to 88 °C.

Regarding `Nc1ccn(-c2cccc(C(F)(F)F)c2)n1`, the melting point was in the range of 80 to 82 °C.

Turning to `COc1cccc(N2CC(C(=O)O)CC2=O)c1` (centres undefined), the melting point lay in the range of 166 to 168 °C.

In the case of `COC(=O)c1ccc(I)cn1`, the melting point fell in the range of 129 to 131 °C.

Turning to `CCOc1ccc(S(=O)(=O)NCC(=O)O)cc1`, the melting point is 139 to 141 °C.

The compound `N#Cc1ccc2c(c1)CC(=O)N2` yielded a melting point of 249 to 251 °C.

Take `COc1cc(C(=O)O)ccc1OCc1ccc(Cl)cc1`: the melting point lay in the range of 221 to 223 °C.

For `O=C(O)c1cc(N2CCNC2=O)c(F)cc1F`, the melting point lay within 246 to 248 °C.

Compound `CS(=O)(=O)NCc1ccccc1` showed a melting point of 49 to 51 °C.

`Cn1ncnc1-c1ccc(C(=O)O)cc1` yielded a melting point of 240 to 242 °C.

The compound `O=C(O)C1CSC2(c3ccccc3)CCC(=O)N12` (centres undefined) gave a melting point of 173 to 175 °C.

Take `NNC(=O)Nc1ccc(S(N)(=O)=O)cc1`: the melting point was in the range of 216 to 218 °C.

Regarding `O=c1[nH]c(CCl)nc2ccc(Cl)cc12`, the melting point lay within 249 to 251 °C.

`O=C(O)c1ccccc1SCc1nnnn1-c1ccccc1` displayed a melting point of 170 to 174 °C.

In turn, `Nc1nc2c(C(F)(F)F)cccc2s1` came in with a melting point of 48 to 50 °C.

As for `O=C(CCl)N1CCN(C(=O)C2COc3ccccc3O2)CC1` (centres undefined), the melting point lay in the range of 199 to 201 °C.

As for `Cc1cc(C(=O)CCl)c(C)n1-c1cccc(Cl)c1`, the melting point was 116 to 118 °C.

Take `CS(=O)(=O)NC1(C(=O)O)CCCCC1`: the melting point lay in the range of 114 to 116 °C.

With `O=[N+]([O-])c1cnccc1NC1CC1`, the melting point lay in the range of 105 to 107 °C.

In turn, `CC1(c2cc(F)ccc2F)NC(=O)NC1=O` (centres undefined) came in with a melting point of 227 to 229 °C.

Turning to `Cc1c(C(=O)O)nnn1-c1cccc2cccnc12`, the melting point was in the range of 188 to 190 °C.

In turn, `Nc1ccc(S(=O)(=O)C(F)F)cc1` registered a melting point of 102 to 104 °C.

`Nc1ccc(S(=O)(=O)NCC2CC2)cc1` showed a melting point of 109 to 111 °C.

Take `O=S(=O)(NC1CCNCC1)c1ccc(Cl)cc1`: the melting point fell in the range of 189 to 191 °C.

In turn, `COc1cc(CC#N)ccc1OCC(F)(F)F` gave a melting point of 62 to 64 °C.

Turning to `Brc1ccccc1-c1ncno1`, the melting point was in the range of 35 to 37 °C.

In the case of `N#CC(N)c1ccc2ccccc2c1` (centres undefined), the melting point is 116 to 118 °C.

Regarding `Ic1cnc2ccccn12`, the melting point is 166 to 168 °C.

Turning to `CC(CC(=O)O)c1ccccc1C(F)(F)F` (centres undefined), the melting point is 76 to 78 °C.

In the case of `CC(C)c1ccc(-c2ncc(CSc3nnc(N)[nH]3)s2)cc1`, the melting point lay within 168 to 170 °C.

`O=C(O)CC1=C(c2cccs2)N2CCN=C2S1`: the melting point was in the range of 220 to 222 °C.

`O=S1(=O)Nc2ncnn2-c2ccccc21` came in with a melting point of 284 to 286 °C.

`Clc1cc(Cl)cc(OCC2CCNCC2)c1`: the melting point lay within 59 to 61 °C.

Consider `O=S(=O)(c1ccc(F)cc1F)N1CCNCC1`, for which the melting point lay within 93 to 95 °C.

On to `N#Cc1c(-c2ccccc2)nc(S)[nH]c1=O`, for which the melting point lay in the range of 327 to 329 °C.

`Cc1cc(C(=O)O)c(C)n1Cc1ccc(S(N)(=O)=O)cc1` displayed a melting point of 198 to 202 °C.

`CS(=O)(=O)c1cccc(C(=O)c2ccc(Cl)cc2)c1` yielded a melting point of 107 to 109 °C.

Turning to `Cc1cc(S(=O)(=O)Nc2sc3c(c2C(N)=O)CCC(C)C3)ccc1Br` (centres undefined), the melting point lay within 218 to 220 °C.

Compound `CCOC(=O)c1c(N)sc(C(=O)NC)c1C` gave a melting point of 151 to 153 °C.

`N#CCCn1cc(/C=C/C(=O)O)c2ccccc21` came in with a melting point of 188 to 192 °C.

Consider `Cc1ccccc1C(O)CN` (centres undefined), for which the melting point was in the range of 88 to 90 °C.

`COC(=O)c1cc(Cl)nc2ccccc12` yielded a melting point of 87 to 89 °C.
